Assay results: US11407763B2, “Tryptophan hydroxylase inhibitor and pharmaceutical composition including same” (GWANGJU INSTITUTE OF SCIENCE AND TECHNOLOGY, priority 2017, dated 2022)
Structures can show the parent of a compound that is named as a salt. One block for each compound: values may come before it.

How the values were obtained:
DSS colitis [1] = type: in vivo, C57BL/6J mice; conditions: mouse
Description: C57BL/6J (Jackson Lab) male mice weighing 25±2 g at 9 weeks of age were used, and all the mice were fed freely by providing standard experimental feed. The compound of Example 53 and LX1606 were dissolved in 0.25% methylcellulose (MC) solution, which was orally administered to mice at the dose of 100 and 300 mg/kg/time using a 1 mL syringe. The compound of Example 53 and LX1606 were administered for 7 days, starting one day prior to dextran sulfate sodium (DSS) administration. Before and after the administration, the samples of colon tissue were collected from each mouse treated with the compound of Example 53 or the control drug (LX1606) to confirm clinical symptoms. Data are expressed as mean±standard error of mean (SEM), and all statistical analyses were performed using GraphPad Prism (version 5.0, GraphPad Software, La Jolla, Calif.). Differences in mean between groups were statistically analyzed by two-way analysis of variance (ANOVA) and multiple comparison tests to reveal the differences between the experimental groups. […]
Colon permeability was measured to confirm if the compound of the present invention affected the amelioration of inflammatory bowel disorder. […] The importance of the intestinal epithelial layer was measured by the changes in intercellular permeability and intimate junction function observed in inflammatory bowel disease (IBD) and colorectal cancer. […]

[2] = target: TPH1 (tryptophan hydroxylase 1) (Homo sapiens (Human), UniProt P17752); experiment: TPH1 inhibitor screening assay kit (BPS Bioscience), fluorescence; type: biochemical; conditions: TPH1 enzyme, 4 hours at 4° C., ex 300 nm / em 360 nm
Chain of TPH1 (tryptophan hydroxylase 1) (P17752 whole entry): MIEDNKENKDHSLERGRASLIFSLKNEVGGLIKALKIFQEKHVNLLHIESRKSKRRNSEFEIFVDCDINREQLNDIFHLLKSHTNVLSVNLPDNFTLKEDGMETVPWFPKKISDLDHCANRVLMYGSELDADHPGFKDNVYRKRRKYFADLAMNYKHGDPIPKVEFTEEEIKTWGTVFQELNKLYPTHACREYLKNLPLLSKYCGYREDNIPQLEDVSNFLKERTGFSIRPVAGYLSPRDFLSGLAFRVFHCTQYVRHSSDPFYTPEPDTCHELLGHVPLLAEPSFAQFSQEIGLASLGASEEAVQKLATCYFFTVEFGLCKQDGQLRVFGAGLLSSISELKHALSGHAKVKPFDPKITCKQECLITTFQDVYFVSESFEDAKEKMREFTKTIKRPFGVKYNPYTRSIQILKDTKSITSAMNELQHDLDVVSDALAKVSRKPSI
Description: In order to confirm the inhibitory effect of the compound represented by formula 1 according to the present invention on the tryptophan hydroxylase activity, it was measured using a TPH1 (tryptophan hydroxylase 1) inhibitor screening assay kit (BPS Bioscience, Catalog #72053). The TPH1 inhibitor screening assay kit was used according to the manufacturer's manual.
Particularly, the synthesized compound was dissolved in DMSO, which was added to a 96-well microplate (10 ? /well), to which TPH1 enzyme was added (40 ? /well). Then, TPH1 reaction solution was added to the microplate (50 ? /well) and the microplate was shaded with aluminum foil. The microplate was transferred to 4° C. environment, shaken carefully and incubated for 4 hours. After adding a quench solution to the microplate (10 ? /well), the TPH1 activity was measured by reading the degree of fluorescence color development with a Flexstation3 microplate reader. At this time, the excitation spectrum was 300 nm and the emission spectrum was 360 nm.

DSS colitis [3] = experiment: DSS colitis mouse model: colon length and colon looseness; type: in vivo, C57BL/6J mice; conditions: 100 mg/kg and 300 mg/kg oral, 7 days, 2.5% DSS
Description: C57BL/6J (Jackson Lab) male mice weighing 25±2 g at 9 weeks of age were used, and all the mice were fed freely by providing standard experimental feed. The compound of Example 53 and LX1606 were dissolved in 0.25% methylcellulose (MC) solution, which was orally administered to mice at the dose of 100 and 300 mg/kg/time using a 1 mL syringe. The compound of Example 53 and LX1606 were administered for 7 days, starting one day prior to dextran sulfate sodium (DSS) administration. Before and after the administration, the samples of colon tissue were collected from each mouse treated with the compound of Example 53 or the control drug (LX1606) to confirm clinical symptoms. Data are expressed as mean±standard error of mean (SEM), and all statistical analyses were performed using GraphPad Prism (version 5.0, GraphPad Software, La Jolla, Calif.). Differences in mean between groups were statistically analyzed by two-way analysis of variance (ANOVA) and multiple comparison tests to reveal the differences between the experimental groups. P<0.05 was considered statistically significant.
Enteritis was induced in mice by freely drinking 2.5% DSS (molecular weight: 36,000-50,000 M.Wt; manufactured by MP Biomedicals, Canada) aqueous solution for 6 days, and the body weight, stiffness of the stool, and the presence or absence of bloody stool were observed daily from the start of the administration. […]

SMILES: CCOC(=O)[C@@H](N)CC1CC=C(c2cc(O[C@H](c3ccc(Cl)cc3-n3ccc(C)n3)C(F)(F)F)nc(N)n2)CC1 (stereo partly drawn) [Example 53, ethyl (2S)-2-amino-3-(4-(2-amino-6-((R)-1-(4-chloro-2-(3-methyl-1H-pyrazole-1-yl)phenyl)-2,2,2-trifluoroethoxy)pyrimidine-4-yl)cyclohex-3-ene-1-yl)propionate hippurate]
- colon permeability (DSS colitis [1]): lower permeability was observed on average

- IC50 ([2]; hydrochloride): 0.741 µM
SMILES: COc1cccc(-c2ccc([C@@H](Oc3cc(C4=CCC5(CC4)CNC(C(=O)O)C5)nc(N)n3)C(F)(F)F)cc2)c1 (stereo partly drawn) [Example 87, 8-(2-amino-6-((R)-2,2,2-trifluoro-1-(3′-methoxy-[1,1′-biphenyl]-4-yl)ethoxy)pyrimidine-4-yl)-2-azaspiro[4.5]dec-7-ene-3-carboxylic acid hydrochloride]

SMILES: CCOC(=O)[C@@H](N)Cc1ccc(-c2cc(O[C@H](c3ccc(Cl)cc3-n3ccc(C)n3)C(F)(F)F)nc(N)n2)cc1 [LX1606, (2S)-2-Amino-3-[4-[2-amino-6-[[(1R)-1-[4-chloro-2-(3-methylpyrazol-1-yl)phenyl]-2,2,2-trifluoroethyl]oxy]pyrimidin-4-yl]phenyl]propionic acid ethyl ester]
- colon length compared with vehicle group (DSS colitis [3]): not longer than that of the group treated with vehicle

- IC50 [2]: 0.565 µM
SMILES: N[C@@H](Cc1ccc(-c2csc3c(O[C@H](c4ccc(Cl)cc4-c4cccc(F)c4)C(F)(F)F)ncnc23)cc1)C(=O)O [Example 24, (S)-2-amino-3-(4-(4-((R)-1-(5-chloro-3′-fluoro-[1,1′-biphenyl]-2-yl)-2,2,2-trifluoroethoxy)thieno[3,2-d]pyrimidine-7-yl)phenyl)propionic acid hydrochloride]

- IC50 [2]: 0.371 µM
SMILES: N[C@@H](Cc1ccc(-c2csc3c(O[C@H](c4ccc(Cl)cc4C4=CCCOC4)C(F)(F)F)ncnc23)cc1)C(=O)O [Example 70, (S)-2-amino-3-(4-(4-((R)-1-(4-chloro-2-(5,6-dihydro-2H-pyran-3-yl)phenyl)-2,2,2-trifluoroethoxy)thieno[3,2-d]pyrimidine-7-yl)phenyl)propionic acid]

- IC50 [2]: 8.72 µM
SMILES: N[C@@H](Cc1ccc(-c2csc3c(OC(c4ccc(Cl)cc4-c4ccc(F)cc4)C(F)(F)F)ncnc23)cc1)C(=O)O (stereo partly drawn) [Example 46, (2S)-2-amino-3-(4-(4-(1-(5-chloro-4′-fluoro-[1,1′-biphenyl]-2-yl)-2,2,2-trifluoroethoxy)thieno[3,2-d]pyrimidine-7-yl)phenyl)propionic acid hydrochloride]

- IC50 ([2]; hydrochloride): 0.125 µM
SMILES: Nc1nc(O[C@H](c2ccc(Cl)cc2C2=CCCOC2)C(F)(F)F)cc(C2=CCC(C[C@H](N)C(=O)O)CC2)n1 (stereo partly drawn) [Example 66, (2S)-2-amino-3-(4-(2-amino-6-((R)-1-(4-chloro-2-(5,6-dihydro-2H-pyran-3-yl)phenyl)-2,2,2-trifluoroethoxy)pyrimidine-4-yl)cyclohex-3-ene-1-yl)propionic acid hydrochloride]
